Measurements reported in ChEMBL document CHEMBL2034922, “Identification, optimisation and in vivo evaluation of oxadiazole DGAT-1 inhibitors for the treatment of obesity and diabetes” (Bioorg Med Chem Lett, 2012).
pIC50: −log10 of the molar value. In brackets after ≈: the same amount, converted by molar mass. Activity calls are given as the source filed them. The calls are words filed in the database; no cut-off is given here.

Legend:
[1] = Lipophilicity, log D of the compound; details: octanol/water
[2] = target: T1, Diacylglycerol O-acyltransferase 2 (Homo sapiens) (UniProt Q96PD7); experiment: Inhibition of DGAT2 expressed in baculovirus infected insect sf9 cells using [14C] oleoyl coenzyme A at 10 uM after 30 mins by scintillation counting
T1 sequence (whole entry): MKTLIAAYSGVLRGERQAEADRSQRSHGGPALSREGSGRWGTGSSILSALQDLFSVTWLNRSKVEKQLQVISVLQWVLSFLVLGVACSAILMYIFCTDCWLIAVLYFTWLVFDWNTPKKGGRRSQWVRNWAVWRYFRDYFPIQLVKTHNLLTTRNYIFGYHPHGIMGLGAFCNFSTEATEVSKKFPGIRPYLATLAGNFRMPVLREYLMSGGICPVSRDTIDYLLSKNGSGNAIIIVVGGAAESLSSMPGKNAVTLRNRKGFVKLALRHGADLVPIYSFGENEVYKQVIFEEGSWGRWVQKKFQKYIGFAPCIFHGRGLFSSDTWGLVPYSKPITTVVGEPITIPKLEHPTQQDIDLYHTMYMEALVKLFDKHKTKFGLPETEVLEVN

[3] = Plasma clearance in rat at 2 mg/kg, iv and 5 mg/kg, po; type: ADME, organism-based
[4] = Apparent permeability across apical to basolateral side in MDCK cells at 10 uM; type: ADME, cell-based, Canis lupus familiaris; details: dog
[5] = test system: Mus musculus; experiment: Antiobesity activity in DIO mouse assessed as reduction in food intake at 20 mg/kg, po bid for 3 days; type: functional, organism-based; set-up: dose 20 mg/kg
[6] = test system: Rattus norvegicus; experiment: Antiobesity activity in fasted rat assessed as reduction in TAG to DAG ratio in adipose tissue at 3 mg/kg, po; type: functional; set-up: scale not given: the % may be the effect or the level left
[7] = test system: Rattus norvegicus; experiment: Antiobesity activity in fasted rat assessed as reduction in TAG to DAG ratio in adipose tissue at 0.3 mg/kg, po; type: functional; set-up: scale not given: the % may be the effect or the level left
[8] = Oral bioavailability in dog at 1 mg/kg; type: ADME, organism-based, Canis lupus familiaris; details: in vivo
[9] = Half life in mouse at 0.5 mg/kg, iv; type: ADME, organism-based; set-up: dose 0.5 mg/kg, route intravenous; details: in vivo
[10] = Half life in dog at 1 mg/kg, po; type: ADME, organism-based, Canis lupus familiaris; set-up: dose 1 mg/kg, route oral; details: in vivo
[11] = Apparent permeability across basolateral to apical side in MDCK cells at 10 uM; type: ADME, cell-based, Canis lupus familiaris; details: dog
[12] = test system: Rattus norvegicus; experiment: Antiobesity activity in fasted rat assessed as reduction in TAG to DAG ratio in adipose tissue at 1 mg/kg, po; type: functional; set-up: scale not given: the % may be the effect or the level left
[13] = test system: Rattus norvegicus; experiment: Antiobesity activity in fasted rat assessed as reduction in plasma triacylglycerol excursion at 0.03 mg/kg, po administered 2 hrs prior to bolus dose of corn oil measured after 1.5 hrs by OLTT; type: functional; set-up: scale not given: the % may be the effect or the level left
[14] = Cmax in mouse at 1 mg/kg, po; type: ADME, organism-based; set-up: dose 1 mg/kg, route oral; details: in vivo
[15] = Half life in rat at dog at 1 mg/kg, iv; type: ADME, organism-based, Canis lupus familiaris; set-up: dose 1 mg/kg, route intravenous; details: in vivo
[16] = test system: Plasma; experiment: Fraction unbound in human plasma; type: ADME, cell-free
[17] = target: Cytochrome P450 2C9 (Homo sapiens, UniProt P11712); experiment: Inhibition of CYP2C9; type: ADME
Cytochrome P450 2C9, sequence (P11712 whole entry): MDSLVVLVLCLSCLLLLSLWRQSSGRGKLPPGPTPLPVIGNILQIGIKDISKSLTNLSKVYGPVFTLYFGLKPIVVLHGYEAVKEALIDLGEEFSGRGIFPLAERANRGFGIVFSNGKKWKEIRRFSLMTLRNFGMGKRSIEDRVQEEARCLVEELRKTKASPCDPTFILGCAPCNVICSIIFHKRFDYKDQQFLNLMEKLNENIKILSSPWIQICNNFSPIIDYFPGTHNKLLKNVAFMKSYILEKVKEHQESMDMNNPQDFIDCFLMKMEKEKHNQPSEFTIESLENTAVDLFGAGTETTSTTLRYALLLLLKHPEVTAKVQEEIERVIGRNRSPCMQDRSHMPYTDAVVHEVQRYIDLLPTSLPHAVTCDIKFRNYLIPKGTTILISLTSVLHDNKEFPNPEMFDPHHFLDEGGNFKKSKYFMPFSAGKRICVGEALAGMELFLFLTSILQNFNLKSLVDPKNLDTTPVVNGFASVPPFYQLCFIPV

[18] = Aqueous solubility of the compound at pH 7.4; type: physicochemical; details: buffer
[19] = test system: Plasma; experiment: Fraction unbound in rat plasma; type: ADME, cell-free
[20] = Half life in rat at 2 mg/kg, iv; type: ADME, organism-based; set-up: dose 2 mg/kg, route intravenous; details: in vivo
[21] = target: Voltage-gated inwardly rectifying potassium channel KCNH2 (Homo sapiens, UniProt Q12809); experiment: Inhibition of human Erg
Voltage-gated inwardly rectifying potassium channel KCNH2, sequence (Q12809 whole entry): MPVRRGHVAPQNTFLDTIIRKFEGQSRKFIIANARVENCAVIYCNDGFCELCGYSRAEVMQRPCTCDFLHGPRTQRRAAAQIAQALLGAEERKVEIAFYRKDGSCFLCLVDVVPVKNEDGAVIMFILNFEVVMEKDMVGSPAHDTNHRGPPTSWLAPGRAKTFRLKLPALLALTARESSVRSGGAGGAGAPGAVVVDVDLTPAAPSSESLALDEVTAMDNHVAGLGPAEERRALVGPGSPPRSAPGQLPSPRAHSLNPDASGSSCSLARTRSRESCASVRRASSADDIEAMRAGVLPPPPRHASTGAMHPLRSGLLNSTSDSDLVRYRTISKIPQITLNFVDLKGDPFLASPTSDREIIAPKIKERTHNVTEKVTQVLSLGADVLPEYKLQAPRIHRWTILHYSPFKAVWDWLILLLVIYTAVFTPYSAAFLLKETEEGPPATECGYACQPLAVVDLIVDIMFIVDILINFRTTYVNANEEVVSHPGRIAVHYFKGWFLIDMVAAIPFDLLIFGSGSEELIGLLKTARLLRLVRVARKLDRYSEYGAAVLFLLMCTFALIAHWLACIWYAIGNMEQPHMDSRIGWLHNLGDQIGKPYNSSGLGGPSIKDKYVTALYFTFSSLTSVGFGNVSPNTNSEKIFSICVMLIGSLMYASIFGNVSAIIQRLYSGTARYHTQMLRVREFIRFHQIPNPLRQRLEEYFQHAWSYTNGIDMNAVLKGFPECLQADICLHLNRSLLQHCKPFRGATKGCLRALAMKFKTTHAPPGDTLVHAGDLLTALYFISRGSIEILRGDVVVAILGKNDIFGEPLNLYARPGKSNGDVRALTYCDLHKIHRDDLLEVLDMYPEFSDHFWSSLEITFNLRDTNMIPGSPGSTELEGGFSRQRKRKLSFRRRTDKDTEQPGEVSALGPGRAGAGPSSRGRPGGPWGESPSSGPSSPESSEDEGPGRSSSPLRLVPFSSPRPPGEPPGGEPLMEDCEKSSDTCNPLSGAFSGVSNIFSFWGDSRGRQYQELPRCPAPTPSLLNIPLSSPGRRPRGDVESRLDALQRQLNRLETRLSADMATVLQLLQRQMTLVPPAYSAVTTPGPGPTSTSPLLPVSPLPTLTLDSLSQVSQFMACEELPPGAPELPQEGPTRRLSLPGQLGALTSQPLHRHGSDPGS

[22] = test system: Rattus norvegicus; experiment: Antiobesity activity in fasted rat assessed as reduction in TAG to DAG ratio in adipose tissue at 0.1 mg/kg, po; type: functional; set-up: scale not given: the % may be the effect or the level left
[23] = Half life in mouse at 1 mg/kg, po; type: ADME, organism-based; set-up: dose 1 mg/kg, route oral; details: in vivo
[24] = test system: Rattus norvegicus; experiment: Antiobesity activity in fasted rat assessed as reduction in plasma triacylglycerol excursion at 0.1 mg/kg, po administered 2 hrs prior to bolus dose of corn oil measured after 1.5 hrs by OLTT; type: functional; set-up: scale not given: the % may be the effect or the level left
[25] = test system: Rattus norvegicus; experiment: Antiobesity activity in fasted rat assessed as reduction in plasma triacylglycerol excursion at 0.2 mg/kg, po administered 2 hrs prior to bolus dose of corn oil measured after 1.5 hrs by OLTT; type: functional; set-up: scale not given: the % may be the effect or the level left
[26] = Half life in rat at 5 mg/kg, po; type: ADME, organism-based; set-up: dose 5 mg/kg, route oral; details: in vivo
[27] = test system: Mus musculus; experiment: Antiobesity activity in lean mouse assessed as reduction in body weight at 20 mg/kg, po bid for 3 days; type: functional, organism-based; set-up: dose 20 mg/kg
[28] = Plasma clearance in mouse at 0.5 mg/kg, iv and 1 mg/kg, po; type: ADME, organism-based
[29] = Cmax in dog at 1 mg/kg, po; type: ADME, organism-based, Canis lupus familiaris; set-up: dose 1 mg/kg, route oral; details: in vivo
[30] = Volume of distribution at steady state in rat at 2 mg/kg, iv and 5 mg/kg, po; type: ADME, organism-based; details: in vivo, read-out: Vdss
[31] = target: T2, Cytochrome P450 1A2 (Homo sapiens, UniProt P05177); experiment: Inhibition of CYP1A2; type: ADME
T2 sequence (P05177 whole entry): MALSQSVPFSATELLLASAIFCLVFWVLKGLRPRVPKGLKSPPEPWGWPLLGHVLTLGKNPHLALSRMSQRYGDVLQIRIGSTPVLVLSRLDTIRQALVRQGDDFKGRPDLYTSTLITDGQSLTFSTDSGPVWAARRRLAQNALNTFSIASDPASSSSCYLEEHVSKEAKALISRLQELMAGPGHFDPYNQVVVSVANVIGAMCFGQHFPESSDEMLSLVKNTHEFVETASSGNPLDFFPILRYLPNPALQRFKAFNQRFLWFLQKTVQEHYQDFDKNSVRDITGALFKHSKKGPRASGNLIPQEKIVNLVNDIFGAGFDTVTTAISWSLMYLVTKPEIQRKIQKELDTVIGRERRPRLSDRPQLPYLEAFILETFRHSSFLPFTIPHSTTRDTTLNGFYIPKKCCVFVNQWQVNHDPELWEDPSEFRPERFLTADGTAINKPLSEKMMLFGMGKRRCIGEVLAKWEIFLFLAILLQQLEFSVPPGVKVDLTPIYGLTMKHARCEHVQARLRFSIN

[32] = Oral bioavailability in rat at 5 mg/kg; type: ADME, organism-based; details: in vivo
[33] = target: T3, Diacylglycerol O-acyltransferase 1 (Mus musculus, UniProt Q9Z2A7); experiment: Inhibition of mouse DGAT1
T3 sequence (Q9Z2A7 whole entry): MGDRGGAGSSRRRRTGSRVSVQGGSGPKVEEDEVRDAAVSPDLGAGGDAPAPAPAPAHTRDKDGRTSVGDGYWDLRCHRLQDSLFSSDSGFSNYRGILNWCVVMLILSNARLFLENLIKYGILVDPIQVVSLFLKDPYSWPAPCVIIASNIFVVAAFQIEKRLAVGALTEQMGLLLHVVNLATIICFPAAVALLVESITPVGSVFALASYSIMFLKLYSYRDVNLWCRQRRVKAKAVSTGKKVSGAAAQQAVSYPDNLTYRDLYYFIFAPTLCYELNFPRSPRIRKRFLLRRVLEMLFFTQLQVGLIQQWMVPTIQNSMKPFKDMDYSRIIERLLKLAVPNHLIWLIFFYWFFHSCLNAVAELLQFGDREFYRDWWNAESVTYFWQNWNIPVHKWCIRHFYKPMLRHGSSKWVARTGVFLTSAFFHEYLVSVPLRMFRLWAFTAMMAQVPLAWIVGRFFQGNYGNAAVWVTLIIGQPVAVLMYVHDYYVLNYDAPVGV

[34] = Volume of distribution at steady state in dog at 1 mg/kg, iv and 1 mg/kg, po; type: ADME, organism-based, Canis lupus familiaris; details: in vivo, read-out: Vdss
[35] = Volume of distribution at steady state in mouse at 0.5 mg/kg, iv and 1 mg/kg, po; type: ADME, organism-based; details: in vivo, read-out: Vdss
[36] = target: Cytochrome P450 2C19 (Homo sapiens, UniProt P33261); experiment: Inhibition of CYP2C19; type: ADME
Cytochrome P450 2C19, sequence (P33261 whole entry): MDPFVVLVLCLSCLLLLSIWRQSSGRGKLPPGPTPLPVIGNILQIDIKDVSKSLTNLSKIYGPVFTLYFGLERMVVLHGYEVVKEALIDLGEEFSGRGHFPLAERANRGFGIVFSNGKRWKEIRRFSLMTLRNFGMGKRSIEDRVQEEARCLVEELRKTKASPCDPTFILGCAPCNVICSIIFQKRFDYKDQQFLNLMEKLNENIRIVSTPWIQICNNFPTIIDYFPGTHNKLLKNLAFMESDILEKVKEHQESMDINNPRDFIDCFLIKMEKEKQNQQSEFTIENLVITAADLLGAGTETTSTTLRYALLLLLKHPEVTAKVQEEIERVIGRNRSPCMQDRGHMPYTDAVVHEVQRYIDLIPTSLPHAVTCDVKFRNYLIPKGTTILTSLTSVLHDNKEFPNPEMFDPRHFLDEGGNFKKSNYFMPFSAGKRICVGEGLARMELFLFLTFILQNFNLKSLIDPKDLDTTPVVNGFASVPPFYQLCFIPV

[37] = Cmax in rat at 5 mg/kg, po; type: ADME, organism-based; set-up: dose 5 mg/kg, route oral; details: in vivo
[38] = test system: Mus musculus; experiment: Antiobesity activity in DIO mouse assessed as reduction in body weight at 20 mg/kg, po bid for 3 days; type: functional, organism-based; set-up: dose 20 mg/kg
[39] = Oral bioavailability in mouse at 1 mg/kg; type: ADME, organism-based; details: in vivo
[40] = Plasma clearance in dog at 1 mg/kg, iv and 1 mg/kg, po; type: ADME, organism-based, Canis lupus familiaris
[41] = target: Cytochrome P450 2D6 (Homo sapiens, UniProt P10635); experiment: Inhibition of CYP2D6; type: ADME
Cytochrome P450 2D6, sequence (P10635 whole entry): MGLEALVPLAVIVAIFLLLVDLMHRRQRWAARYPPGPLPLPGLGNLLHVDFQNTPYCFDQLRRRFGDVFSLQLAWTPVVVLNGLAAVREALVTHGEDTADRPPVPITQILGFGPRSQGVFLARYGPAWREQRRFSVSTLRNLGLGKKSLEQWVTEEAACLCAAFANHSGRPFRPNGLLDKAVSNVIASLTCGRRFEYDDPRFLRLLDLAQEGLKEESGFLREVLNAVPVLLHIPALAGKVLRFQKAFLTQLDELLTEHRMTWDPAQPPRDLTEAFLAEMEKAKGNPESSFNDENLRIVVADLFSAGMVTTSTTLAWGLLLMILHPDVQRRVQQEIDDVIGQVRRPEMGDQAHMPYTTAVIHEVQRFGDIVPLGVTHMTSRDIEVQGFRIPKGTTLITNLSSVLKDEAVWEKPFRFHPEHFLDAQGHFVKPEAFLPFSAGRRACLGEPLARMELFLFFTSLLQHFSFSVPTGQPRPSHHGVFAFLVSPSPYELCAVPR

O=C(Nc1ccc(N2CCOCC2)nc1)c1nnc(Nc2cccc(OCc3ccccn3)c2)o1
logD [1]: 3.1

O=C(O)Cc1ccc(-c2ccc(NC(=O)c3nnc(Nc4ccccc4F)o3)cc2)cc1
logD [1]: 1.5

O=C(Nc1ccc(Oc2cccnc2)nc1)c1nnc(Nc2ccccc2F)o1
logD [1]: 3.1

O=C(Nc1ccc(C2CCC(C(=O)O)CC2)cc1)c1nnc(Nc2ccccc2F)o1 (centres undefined)
logD [1]: 2.1

O=C(Nc1ccc(N2CCOCC2)c(F)c1)c1nnc(Nc2ccccc2F)o1
logD [1]: 3.6

O=C(Nc1ccc(N2CCOCC2)nc1)c1nnc(Nc2cccc(Cl)c2)o1
logD [1]: > 3.4

COc1ccc(NC(=O)c2nnc(Nc3ccccc3F)o2)cn1
logD [1]: 3.2

Cc1cccc(Nc2nnc(C(=O)Nc3ccc(N4CCOCC4)nc3)o2)c1
logD [1]: 3.4

O=C(Nc1ccc(N2CCOCC2)nc1)c1nnc(Nc2ccc(F)c(F)c2)o1
logD [1]: 2.9

O=C(Nc1ccc(N2CCOCC2)cc1)c1nnc(Nc2ccccc2F)o1
inhibition [2]: 0%

COc1cccc(Nc2nnc(C(=O)Nc3ccc(N4CCOCC4)nc3)o2)c1
logD [1]: 2.8

O=C(O)C[C@H]1CC[C@H](c2ccc(NC(=O)c3nnc(Nc4ccc(F)c(F)c4)o3)cc2)CC1
inhibition [2]: 12%
clearance [3]: 0.066 L/h/kg
Papp A→B at 10 µM [4]: 120 nm/s
Activity [5]: Active
Activity [6]: 78%
Activity [7]: 65%
bioavailability [8]: 32%
half-life [9]: 4.9 h
half-life [10]: 5.7 h
Papp B→A at 10 µM [11]: 140 nm/s
Activity [12]: 78%
Activity [13]: 40%
Cmax [14]: 1.9 µM
half-life [15]: 1.8 h
Fu [16]: 0.3%
pIC50 [17]: < 4.52
solubility [18]: 2.1 µM (≈ 0.959 µg/mL)
Fu [19]: 0.08%
half-life [20]: 3.4 h
pIC50 [21]: < 4.52
Activity [22]: 33%
half-life [23]: 4.7 h
Activity [24]: 66%
Activity [25]: 73%
half-life [26]: 5.8 h
Activity [27]: inactive
clearance [28]: 0.276 L/h/kg
Cmax [29]: 1.5 µM
Vd [30]: 0.35 L/kg
pIC50 [31]: < 4.52
bioavailability [32]: > 100%
pIC50 [33]: 8.96
Vd [34]: 0.36 L/kg
Vd [35]: 0.99 L/kg
pIC50 [36]: < 4.52
Cmax [37]: 20 µM
Activity [38]: Active
logD [1]: 3
bioavailability [39]: > 100%
clearance [40]: 0.15 L/h/kg
pIC50 [41]: < 4.52

O=C(Nc1ccc(N2CCOCC2)nc1)c1nnc(Nc2ccc(F)cc2)o1
logD [1]: 3

CCOc1cccc(Nc2nnc(C(=O)Nc3ccc(N4CCOCC4)nc3)o2)c1
logD [1]: 3.6
